Values quoted from earlier work, collected in US9327003B2, “Use of foti to enhance stem cell mobilization and proliferation” (Stemtech International, Inc., priority 2011, dated 2016).

Legend:
[1] = including hemorrhaging, rupturing of the spleen, bloody sputum, bone disorders
[2] = system: circulating HSC; conditions: injection / administration

| Molecule | side effects [1] | time course of elevating circulating HSC numbers [2] | also measured |
| --- | --- | --- | --- |
| OC[C@H]1O[C@@H](Oc2c(O)cc(O)cc2C=Cc2ccc(O)cc2)[C@H](O)[C@@H](O)[C@@H]1O [2,3,5,4′-tetrahydroxystilbene-2-O-β-d-glycoside] |  |  | stability in aqueous solutions: readily degrade in aqueous solutions in a temperature and pH dependent manner |
| c1cc(CN2CCCNCCNCCCNCC2)ccc1CN1CCCNCCNCCCNCC1 [AMD3100, reference compound] | significant side effects |  |  |
| G-CSF: granulocyte colony-stimulating factor or recombinant forms thereof |  | requires days to achieve peak circulating HSC numbers |  |
| IL-8: interleukin-8 |  | acts only within minutes and has a short-lived effect |  |
| G-CSF: granulocyte colony-stimulating factor or recombinant forms thereof (protein, UniProt P09919 31-207, looked up) Granulocyte …: TPLGPASSLPQSFLLKCLEQVRKIQGDGAALQEKLVSECATYKLCHPEELVLLGHSLGIPWAPLSSCPSQALQLAGCLSQLHSGLFLYQGLLQALEGISPELGPTLDTLQLDVADFATTIWQQMEELGMAPALQPTQGAMPAFASAFQRRAGGVLVASHLQSFLEVSYRVLRHLAQP | significant side effects |  |  |
